A word on the CC50: it is the concentration that lowers cell viability or growth by half. As usually defined, the IC50 is the concentration that gives 50% inhibition.

Each structure is given as a SMILES string. Calls of active or inactive are those of the source. No cut-off for these calls is given here.

Series [1] can be described thus: Cytotoxicity in HEK293 cells assessed as reduction in cell viability by MTT assay. It is filed as cell-based. Particulars: human. Background: Formazan colour is commonly taken as a measure of viable cells.
Series [2] relates to Protease (Human immunodeficiency virus 1), Q9YQ12 [V32I]. The series can be described thus: Inhibition of GFP-tagged HIV1 protease V32I mutant transfected in HEK293 cells at 10 uM incubated for 24 hrs by fluorescence microscopy. It is filed as cell-based.
The target of series [3] is Protease (Human immunodeficiency virus 1) (UniProt Q9YQ12). The series can be described thus: Inhibition of GFP-tagged HIV1 protease transfected in HEK293 cells at 10 to 30 uM incubated for 24 hrs by FACS analysis. It is filed as cell-based. In general terms: Flow cytometry measures light scatter and fluorescence of single cells or particles in a stream.
Series [4] is described as follows: Cytotoxicity in HEK293 cells assessed as reduction in cell viability after 24 hrs by MTT assay. The series is classed as cell-based. The note with it: human.
The target of series [5] is Protease (Human immunodeficiency virus 1) (UniProt Q9YQ12). Briefly: Inhibition of GFP-tagged HIV1 protease transfected in HEK293 cells at 10 uM incubated for 24 hrs by FACS analysis. It is filed as cell-based.
Series [6] shares this target. Briefly: Inhibition of GFP-tagged HIV1 protease transfected in HEK293 cells at 30 uM incubated for 24 hrs by fluorescence microscopy. The series is classed as cell-based.
The nature of series [7]: Inhibition of HIV protease assessed as reduction in enzyme-mediated substrate hydrolysis using Abz-Thr-Ile-Nle-Phe(NO2)-Gln-Arg fluorogenic substrate. Also on record: species or system Human immunodeficiency virus.
Series [8] in a line: Intrinsic clearance in human liver microsomes assessed per mg protein. The series is classed as ADME, Microsome. The note with it: read-out: CLH. In general terms: Liver microsomes are vesicles of endoplasmic reticulum, rich in cytochrome P450 enzymes.
Series [9] in a line: Intrinsic clearance in rat liver microsomes assessed per mg protein. The series is classed as ADME, Microsome. Particulars: read-out: CLH.
Series [10] concerns Protease (Human immunodeficiency virus 1), Q9YQ12 [V82A]. The series can be described thus: Inhibition of GFP-tagged HIV1 protease V82A mutant transfected in HEK293 cells at 10 uM incubated for 24 hrs by fluorescence microscopy. The series is classed as cell-based.
The target of series [11] is Protease (Human immunodeficiency virus 1) (UniProt Q9YQ12). The series can be described thus: Inhibition of GFP-tagged HIV1 protease transfected in HEK293 cells at 30 uM incubated for 24 hrs by FACS analysis. It is filed as cell-based.
Series [12] relates to Protease (Human immunodeficiency virus 1), Q9YQ12 [V82A]. The series can be described thus: Inhibition of GFP-tagged HIV1 protease V82A mutant transfected in HEK293 cells at 30 uM incubated for 24 hrs by fluorescence microscopy. The series is classed as cell-based.
Series [13] has as its system Protease (Human immunodeficiency virus 1), Q9YQ12 [V32I]. Briefly: Inhibition of GFP-tagged HIV1 protease V32I mutant transfected in HEK293 cells at 30 uM incubated for 24 hrs by fluorescence microscopy. It is filed as cell-based.
For series [14], the target named is Protease (Human immunodeficiency virus 1) (UniProt Q9YQ12). The series can be described thus: Inhibition of GFP-tagged HIV1 protease transfected in HEK293 cells at 10 uM incubated for 24 hrs by fluorescence microscopy. It is filed as cell-based.

Protease (Human immunodeficiency virus 1), sequence (Q9YQ12 as listed by the source): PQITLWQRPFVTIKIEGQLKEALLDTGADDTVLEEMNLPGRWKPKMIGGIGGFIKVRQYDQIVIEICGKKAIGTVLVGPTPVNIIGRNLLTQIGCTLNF
Protease (Human immunodeficiency virus 1), Q9YQ12 [V82A], sequence (Q9YQ12 entry or part of it V82A): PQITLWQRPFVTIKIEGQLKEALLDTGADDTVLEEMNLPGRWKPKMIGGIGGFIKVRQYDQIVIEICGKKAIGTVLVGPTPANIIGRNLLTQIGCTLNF
Protease (Human immunodeficiency virus 1), Q9YQ12 [V32I], sequence (Q9YQ12 entry or part of it V32I): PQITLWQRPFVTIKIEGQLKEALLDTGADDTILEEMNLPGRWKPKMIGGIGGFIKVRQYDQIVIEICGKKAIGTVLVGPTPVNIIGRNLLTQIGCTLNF

Turning to `COc1ccc(S(=O)(=O)N(CC(C)C)C[C@@H](O)[C@H](Cc2ccccc2)NC(=O)Oc2ccc3[nH]ccc3c2)cc1`, the CC50 in series [1] was determined as 2.8 µM. Besides, the inhibition entry in series [2], in series [3], in [5] and in series [10] was “Active” throughout. In addition, in series [4], the CC50 at 24 h was > 60 µM. For the same compound, in [6], the “inhibition call (active/not active)” value was “Active”. Moreover, the IC50 in [7] is ≤ 0.0006 µM. For the same compound, the microsomal CLint in series [8] turned out to be 548 µL/min/mg; in series [9], 522 µL/min/mg.

Take `COc1ccc(S(=O)(=O)N(CC(C)C)C[C@@H](O)CNC(=O)Oc2ccc3occc3c2)cc1`: the inhibition result in series [3] was “inactive”. For the same compound, the cytotoxic concentration (CC50) at 24 h in series [4] was > 60 µM. Besides, the “inhibition call (active/not active)” value in [6] is “inactive”. In series [7], the IC50 is 15.4 µM.

On to `COc1ccc(S(=O)(=O)N(CC(C)C)C[C@@H](O)[C@H](Cc2ccccc2)NC(=O)Oc2ccc3sccc3c2)cc1`, for which the inhibition result in [3] is “inactive”. Further, the CC50 at 24 h in [4] is > 60 µM. The “inhibition call (active/not active)” value in series [6] was “inactive”. In addition, the IC50 in [7] came to 0.0108 µM.

Take `COc1ccc(S(=O)(=O)N(CC(C)C)C[C@@H](O)CNC(=O)Oc2ccc3[nH]ccc3c2)cc1`: the inhibition result in series [3] is “inactive”. Also, the CC50 at 24 h in [4] was > 60 µM. Besides, the “inhibition call (active/not active)” value in series [6] is “inactive”. Also, in series [7], the IC50 worked out at 13.4 µM.

Turning to `COc1ccc(S(=O)(=O)N(CC(C)C)C[C@@H](O)[C@H](Cc2ccccc2)NC(=O)Oc2ccc3occc3c2)cc1`, the CC50 in series [1] is > 100 µM. The inhibition result in series [3], in series [11], in series [12], in series [13] and in [14] was “Active” throughout. Moreover, the 50% cytotoxic concentration (CC50) at 24 h in series [4] was > 60 µM. In addition, in [6], the “inhibition call (active/not active)” value is “Active”. For the same compound, the IC50 in series [7] is ≤ 0.0006 µM. The microsomal CLint stood at 121 µL/min/mg in series [8] and 26.8 µL/min/mg in series [9].

For the compound `COc1ccc(S(=O)(=O)N(CC(C)C)C[C@@H](O)CNC(=O)Oc2ccc3sccc3c2)cc1`, in series [1], the CC50 is > 100 µM. The inhibition entry in series [3] was “inactive”. Besides, in series [4], the half-maximal cytotoxic concentration (CC50) at 24 h is > 60 µM. The “inhibition call (active/not active)” value in [6] is “inactive”. Besides, in series [7], the IC50 was found to be 0.049 µM.

For the compound `CC(C)CN(C[C@@H](O)[C@H](Cc1ccccc1)NC(=O)O[C@H]1CO[C@H]2OCC[C@H]21)S(=O)(=O)c1ccc(N)cc1`, the inhibition result in series [3] was “Active”. In addition, the “inhibition call (active/not active)” value in series [6] is “Active”.

Values taken from ChEMBL document CHEMBL4392835, “New heteroaryl carbamates: Synthesis and biological screening in vitro and in mammalian cells of wild-type and mutant HIV-protease inhibitors” (Bioorg Med Chem, 2019).
